Source: patent publication US20100029615A1, “BENZIMIDAZOLE DERIVATIVES” (priority 2006, published 2010)
Structures can show the parent of a compound that is named as a salt.

Target: T1, SMO (Mus musculus, UniProt P56726)
T1 construct: endogenous in cells; host or cells: C3H10T1/2 (ATCC #CCL-226)
Test: Smoothened (SMO)/Sonic Hedgehog (SHh) Transient Transcriptional Activation Assay (Gli-luciferase reporter in C3H10T1/2 cells)
Format: cell-based, murine
Conditions: 2 uM test compound, SHh 250 ng/ml, 20 hrs
How it was run: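 Luminescence (Dual-Glo) measured after 20 h co-exposure at 37 °C to 250 ng/ml human SHh and compound at 2 uM down to 2 nM final. Cells were C3H10T1/2 carrying a transfected murine 10× Gli response-element luciferase construct with pEGFP, starved 20 h in 0.5% calf serum beforehand.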

T1 sequence (P56726 33-793): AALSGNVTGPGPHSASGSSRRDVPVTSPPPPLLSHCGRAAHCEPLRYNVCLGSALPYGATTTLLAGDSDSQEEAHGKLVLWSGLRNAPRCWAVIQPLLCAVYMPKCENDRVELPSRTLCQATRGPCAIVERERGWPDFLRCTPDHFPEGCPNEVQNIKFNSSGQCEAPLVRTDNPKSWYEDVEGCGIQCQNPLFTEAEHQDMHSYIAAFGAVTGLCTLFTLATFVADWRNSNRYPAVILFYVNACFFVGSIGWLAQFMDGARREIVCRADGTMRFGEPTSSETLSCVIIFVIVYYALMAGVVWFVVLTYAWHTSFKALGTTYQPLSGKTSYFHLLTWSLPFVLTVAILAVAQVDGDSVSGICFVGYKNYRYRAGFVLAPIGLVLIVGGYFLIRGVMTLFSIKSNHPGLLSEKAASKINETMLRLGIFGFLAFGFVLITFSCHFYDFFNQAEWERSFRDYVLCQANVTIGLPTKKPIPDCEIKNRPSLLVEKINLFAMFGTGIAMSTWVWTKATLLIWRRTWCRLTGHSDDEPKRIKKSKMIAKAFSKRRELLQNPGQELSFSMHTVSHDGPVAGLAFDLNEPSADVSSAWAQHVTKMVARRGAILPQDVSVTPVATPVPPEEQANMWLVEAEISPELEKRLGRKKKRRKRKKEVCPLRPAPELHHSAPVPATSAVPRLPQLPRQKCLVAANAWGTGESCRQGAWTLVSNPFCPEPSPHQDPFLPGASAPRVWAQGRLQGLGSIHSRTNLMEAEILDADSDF

Row | SMO % inhibition at 2 uM [%] | Compound
1 | 102 | N-(3-(6-(Methoxymethyl)-1-methyl-1H-benzo[d]imidazol-2-yl]cyclohexyl)-2,3-dihydrobenzo[b][1,4]dioxine-6-carboxamide and N-(3-(6-(Methoxymethyl)-1-methyl-1H-benzo[d]imidazol-2-yl]cyclohexyl)-2,3-dihydrobenzo[b][1,4]dioxine-6-carboxamide [Example 33]
2 | 106 | N-(3-(6-(Cyanomethyl)-1-methyl-1H-benzo[d]imidazol-2-yl)cyclohexyl)-2,3-dihydrobenzo[b][1,4]dioxine-6-carboxamide and N-(3-(5-(Cyanomethyl)-1-methyl-1H-benzo[d]imidazol-2-yl)cyclohexyl)-2,3-dihydrobenzo[b][1,4]dioxine-6-carboxamide [Example 35]

Row | Compound | SMO % inhibition at 2 uM [%]
3 | COc1cc(OC)cc(C(=O)NC2CCCC(c3nc4cc(C(=O)N(C)C)ccc4[nH]3)C2)c1 (single isomer, unassigned) [Example 8, 2-(3-(3,5-dimethoxybenzamido)cyclohexyl)-N,N-dimethyl-1H-benzo[d]imidazole-5-carboxamides (cis- and trans-isomers)] | 68

Same assay, conditions: 2 μM test compound, SHh 250 ng/ml, 20 hrs, 2 µM

Row | SMO CELL % INHIBITION @ 2 μM [%] | Compound
4 | 107.2 | COc1cc(OC)cc(C(=O)N[C@@H]2CCC[C@H](c3nc4ccc(C(F)(F)F)cc4[nH]3)C2)c1 [Example 171, 3,5-dimethoxy-N-{(1R,3S)-3-[6-(trifluoromethyl)-1H-benzimidazol-2-yl]cyclohexyl} benzamide (+)-tartrate]

Same assay, conditions: 2 μM test compound, SHh 250 ng/ml, 20 hrs, HCl, 2 µM

Row | SMO CELL % INHIBITION @ 2 μM [%] | Compound
5 | 101.34 | COc1cc(OC)cc(C(=O)NC23CCCC(c4nc5cc(C(F)(F)F)ccc5[nH]4)(C2)C3)c1 [Example 260, 3,5-dimethoxy-N-{5-[5-(trifluoromethyl)-1H-benzimidazol-2-yl]bicyclo[3.1.1]hept-1-yl}benzamide HCl]

Same assay, conditions: C3H 10T1/2, 2 uM test compound, SHh 250 ng/ml, 20 hrs, read-out: SMO % inhibition at 2 uM

Row | inhibition at 2 µM [%] | Compound
6 | 99 | COc1cc(OC)cc(C(=O)NC2CCCC(c3nc4cc(Cl)ccc4[nH]3)C2)c1 (centres unmarked) [Example 25, N-(3-(6-Chloro-1H-benzo[d]imidazol-2-yl)cyclohexyl]-3,5-dimethoxybenzamide]
7 | 108 | CN1C(=O)COc2ccc(C(=O)N[C@@H]3CCC[C@H](c4nc5ccccc5[nH]4)C3)cc21 [Example 45, N-((1R,3S)-3-(1H-Benzo[d]midazol-2-yl)cyclohexyl)-4-methyl-3-oxo-3,4-dihydro-2H-benzo[b][1,4]oxazine-6-carboxamide]
8 | 100 | N#Cc1ccc2nc(C3CCCC(NC(=O)c4ccc5c(c4)OCCO5)C3)[nH]c2c1 (centres unmarked) [Example 19, N-(3-(5-Cyano-1H-benzo[d]imidazol-2-yl)cyclohexyl]-2,3-dihydrobenzo[b][1,4]dioxine-6-carboxamide]

Continued, compound first:

Row | Compound | inhibition at 2 µM [%]
9 | CNC(=O)c1ccc2nc([C@H]3CCC[C@@H](NC(=O)c4cc(OC)cc(OC)c4)C3)[nH]c2c1 [Example 7, 2-(3-[3,5-dimethoxybenzamido)cyclohexyl)-N-methyl-1H-benzo[d]imidazole-5-carboxamide] | 70
10 | COc1cc(OC)cc(C(=O)NC2CCCC(c3nc4ccc(Br)cc4[nH]3)C2)c1 (centres unmarked) [Example 17, N-(3-(5-Bromo-1H-benzo[d]imidazol-2-yl)cyclohexyl)-3,5-dimethoxybenzamide] | 103

Same assay, conditions: C3H 10T1/2, 2 μM test compound, SHh 250 ng/ml, 20 hrs, read-out: SMO CELL % INHIBITION @ 2 μM

Row | inhibition at 2 µM [%] | Compound
11 | 106 | O=C(N[C@@H]1CCC[C@H](c2nc3cc(C(F)(F)F)ccc3[nH]2)C1)c1ccc2c(c1)OCCO2 [Example 151, N-{(1R,3S)-3-[5-(trifluoromethyl)-1H-benzimidazol-2-yl]cyclohexyl}-2,3-dihydro-1,4-benzodioxine-6-carboxamide HCl]
12 | 105 | COc1cc(OC)cc(C(=O)NC2CCCC(c3nc4cc(C(F)(F)F)ccc4[nH]3)C2)c1 (centres unmarked) [Example 74, 3,5-dimethoxy-N-{3-[6-(trifluoromethyl)-1H-benzimidazol-2-yl)cyclohexyl}-benzamide HCl]
13 | 97 | O=C1COc2ccc(C(=O)N[C@@H]3CCC[C@H](c4nc5ccccc5[nH]4)C3)cc2N1 [Example 173, N-[(1R,3S)-3-(1H-benzimidazol-2-yl)cyclohexyl]-3-oxo-3,4-dihydro-2H-1,4-benzoxazine-6-carboxamide HCl]
14 | 83 | CC(C)C1=NOC(C(=O)NC2CCCC(c3nc4ccccc4[nH]3)C2)C1 (centres unmarked) [Example 97, N-[3-(1H-benzimidazol-2-yl)cyclohexyl]-3-isopropyl-4,5-dihydroisoxazole-5-carboxamide triflouroacetate]
15 | 86 | CCCN1CCNC(=O)C1CC(=O)NC1CCCC(c2nc3ccccc3[nH]2)C1 (centres unmarked) [Example 110, N-[3-(1H-benzimidazol-2-yl)cyclohexyl]-2-(3-oxo-1-propylpiperazin-2-yl)acetamide triflouroacetate]
16 | 84 | Cn1cc(CN2CCCC2)cc1C(=O)NC1CCCC(c2nc3ccccc3[nH]2)C1 (centres unmarked) [Example 130, N-[3-(1H-benzimidazol-2-yl)cyclohexyl]-1-methyl-4-(pyrrolidin-1-ylmethyl)-1H-pyrrole-2-carboxamide triflouroacetate]

More lines, now with the values behind:

Row | Compound | inhibition at 2 µM [%]
17 | [N-]=[N+]=Nc1ccc(C(=O)NC23CCCC(c4nc5cc(C(F)(F)F)ccc5[nH]4)(C2)C3)cc1 [Example 273, 4-azido-N-{5-[5-(trifluoromethyl)-1H-benzimidazol-2-yl]bicyclo[3.1.1]hept-1-yl}benzamide] | 93.2
18 | Cc1ccn2cc(CCC(=O)NC3CCCC(c4nc5ccccc5[nH]4)C3)nc2c1 (centres unmarked) [Example 156, N-[3-(1H-benzimidazol-2-yl)cyclohexyl]-3-(7-methylimidazo [1,2-a]pyridin-2-yl)propanamide triflouroacetate] | 53
19 | Cc1cc2nc(C3CCCC(NC(=O)c4ccc5c(c4)OCCO5)C3)[nH]c2cc1C (centres unmarked) [Example 80, N-[3-(5,6-dimethyl-1H-benzimidazol-2-yl)cyclohexyl]-2,3-dihydro-1,4-benzodioxine-6-carboxamide HCl] | 103
20 | CN1[C@H](C(=O)N[C@@H]2CCC[C@H](c3nc4ccccc4[nH]3)C2)C[C@@H]2CCCC[C@@H]21 [Example 268, (2S,3aS,7aS)-N-[(1R,3S)-3-(1H-benzimidazol-2-yl)cyclohexyl]-1-methyloctahy-dro-1H-indole-2-carboxamide HCl] | 50.7
21 | O=C(N[C@@H]1CCC[C@H](c2nc3cc(Cl)ccc3[nH]2)C1)c1ccc2c(c1)CN(CC1CC1)CC2 [Example 296, N-[(1R,3S)-3-(5-chloro-1H-benzimidazol-2-yl)cyclohexyl]-2-(cyclopropyl-methyl)-1,2,3,4-tetrahydroisoquino-line-7-carboxamide (+)-tartrate] | 106
22 | O=C(N[C@@H]1CCC[C@H](c2nc3ccccc3[nH]2)C1)c1n[nH]c2c1CCCCCC2 [Example 212, N-[(1R,3S)-3-(1H-benzimidazol-2-yl)cyclohexyl]-4,5,6,7,8,9-hexahydro-1H-cycloocta[c] pyrazole-3-carboxamide triflouroacetate] | 71
23 | COc1cc(OC)cc(C(=O)NC2CCCC(c3nc4ccc(OC)cc4[nH]3)C2)c1 (centres unmarked) [Example 69, 3,5-dimethoxy-N-[3-(6-methoxy-1H-benzimidazol-2-yl)cyclohexyl] benzamide] | 105
24 | O=C(N[C@@H]1CCCC(c2nc3ccccc3[nH]2)C1)c1ccc2c(c1)OC(F)(F)O2 (stereo partly drawn) [Example 251, N-((1R,3S)-3-(1H-benzo[d]imidaz-ol-2-yl)cyclohexyl)-2,2-difluorobenzo[d] [1,3]dioxole-5-carboxamide] | 102
25 | O=C(Nc1ccc(-c2ccccc2)s1)N[C@@H]1CCC[C@H](c2nc3ccccc3[nH]2)C1 [Example 229, 1-[(1R,3S)-3-(1H-benzimidazol-2-yl)cyclohexyl]-3-(5-phenyl-2-thienyl)urea] | 108
26 | O=C(N[C@@H]1CCC[C@H](c2nc3ccccc3[nH]2)C1)[C@H]1CCc2ccccc2O1 [Example 207, (2R)-N-[(1R,3S)-3-(1H-benzimidazol-2-yl)cyclohexyl]-chromane-2-carboxamide triflouroacetate] | 107
27 | O=C(NC1CCCC(c2nc3ccccc3[nH]2)C1)c1ccnn1-c1ccccc1 (centres unmarked) [Example 106, N-[3-(1H-benzimidazol-2-yl)cyclohexyl]-1-phenyl-1H-pyrazole-5-carboxamide triflouroacetate] | 76
28 | O=C(NC1CCCC(c2nc3ccccc3[nH]2)C1)c1ccc(-c2cnco2)cc1 (centres unmarked) [Example 160, N-[3-(1H-benzimidazol-2-yl)cyclohexyl]-4-(1,3-oxazol-5-yl)benzamide triflouroacetate] | 72
29 | O=C(N[C@@H]1CCC[C@H](c2nc3ccccc3[nH]2)C1)c1ccc2oc(=O)[nH]c2c1 [Example 213, N-[(1R,3S)-3-(1H-benzimidazol-2-yl)cyclohexyl]-2-oxo-2,3-dihydro-1,3-benzoxazole-5-carboxamide triflouroacetate] | 73
30 | N#Cc1ccc(NC(=O)N[C@@H]2CCC[C@H](c3nc4ccccc4[nH]3)C2)cc1 [Example 228, 1-[(1R,3S)-3-(1H-benzimidazol-2-yl)cyclohexyl]-3-(4-cyanophenyl) urea] | 109
31 | Cc1nn(C)c2sc(C(=O)N[C@@H]3CCC[C@H](c4nc5ccccc5[nH]4)C3)cc12 [Example 204, N-[(1R,3S)-3-(1H-benzimidazol-2-yl)cyclohexyl]-1,3-dimethyl-1H-thieno[2,3-c]pyrazole-5-carboxamide triflouroacetate] | 103
32 | COc1cc(OC)cc(C(=O)NC23CCCC(c4nc5cc(Cl)ccc5[nH]4)(C2)C3)c1 [Example 269, N-[5-(5-chloro-1H-benzimidazol-2-yl)bicyclo[3.1.1]hept-1-yl]-3,5-dimethoxybenz-amide] | 107
